Source: US20230100367A1, “METHODS OF TREATING CDGSH IRON SULFUR DOMAIN 2 INSUFFICIENCY-ASSOCIATED DISORDERS” (National Yang Ming Chiao Tung University, priority 2021, published 2023)

Each compound was assayed on Cisd2 promoter with firefly luciferase reporter (HEK293-CISD2) (assay: Cisd2-luciferase reporter assay). Conditions: Homo sapiens; HEK293-CISD2 cells, 24 h incubation, luciferase activity.
Type: cell-based
Method: Compounds 1-35 were tested for increasing the level of Cisd2 in human embryonic kidney cells 293 (HEK293), a transfected cell line expressing Cisd2, using the Cisd2-luciferase reporter assay as described below.
The transfected HEK293 cells stably expressed Cisd2 promoter with firefly luciferase reporter (“HEK293-CISD2”). They were kept in Dulbecco's modified Eagle's medium (“DMEM”) (Gibco, New York, N.Y.). Culture medium was supplemented with 10% heat-inactivated fetal bovine serum (“FBS”), 2 mM L-Glutamine, 1 mM sodium pyruvate, 0.1% MEM Non-Essential Amino Acids, 1 μg/ml puromycin and 1% penicillin/streptomycin (HyClone, Logan, Utah). The cells were maintained at 37° C. in an incubator (Thermo Fisher Scientific, Waltham, Mass.) with an atmosphere of 5% CO2. The stably transfected cells were seeded in 384-well plates at a density of 3×10^3 cells/well. After incubation with a tested compound at 37° C. for 24 h, ONE-Glo™ Luciferase Assay System (Promega, Madison, Wis.) was added at room temperature for 10 minutes to detect any luciferase activity. Luminescence intensity was registered using plate reader BioTek Synergy Neo2™ (Agilent, Santa Clara, Calif.).
EC50 values in this table are presented in […] classes, i.e., A: <1 μM and B: 1 μM-10 μM.

SMILES	EC50 [µM]
CC(=O)c1c(N)sc(C(=O)Nc2ccc(F)cc2)c1C [Compound 32, 4-Acetyl-5-amino-N-(4-fluorophenyl)-3-methylthiophene-2-carboxamide]	< 1
COC(=O)c1c(N)sc(C(=O)Nc2ccc(C(F)(F)F)cc2)c1C [Compound 10, Methyl 2-amino-4-methyl-5-{-[4-(trifluoromethyl)phenyl]carbamoyl}thiophene-3-carboxylate]	< 1
COC(=O)c1c(N)sc(C(=O)Nc2ccc(O)cc2)c1C [Compound 21, methyl 2-amino-5-[(4-hydroxyphenyl)carbamoyl]-4-methylthiophene-3-carboxylate]	< 1
Cc1ccc(NC(=O)c2sc(N)c(C(=O)CO)c2C)c(C)c1 [Compound 29, 5-amino-N-(2,4-dimethylphenyl)-4-(hydroxyacetyl)-3-methylthiophene-2-carboxamide]	< 1
COC(=O)c1c(N)sc(C(=O)Nc2cccc(C)c2)c1C [Compound 16, Methyl 2-amino-4-methyl-5-[(3-methylphenyl)carbamoyl]thiophene-3-carboxylate]	< 1
COC(=O)c1c(N)sc(C(=O)Nc2ccc(C)cc2C)c1Br [Compound 23, methyl 2-amino-4-bromo-5-[(2,4-dimethylphenyl)carbamoyl]thiophene-3-carboxylate]	< 1
COC(=O)c1c(N)sc(C(=O)Nc2ccccc2OC)c1C [Compound 35, Methyl 2-amino-5-[(2-methoxyphenyl)carbamoyl]-4-methylthiophene-3-carboxylate]	1 to 10
Cc1ccc(NC(=O)c2sc(N)c(C(=O)OC(C)(C)C)c2C)c(C)c1 [Compound 34, tert-Butyl 2-amino-5-[(2,4-dimethylphenyl)carbamoyl]-4-methylthiophene carboxylate]	1 to 10
Cc1ccc(NC(=O)c2sc(N)c(C(=O)OC(C)C)c2C)c(C)c1 [Compound 14, Propan-2-yl 2-amino-5-[(2,4-dimethylphenyl)carbamoyl]-4-methylthiophene-3-carboxylate]	1 to 10
COC(=O)c1c(N)sc(C(=O)Nc2ccc(C)cc2)c1C [Compound 8, Methyl 2-amino-4-methyl-5-[(4-methylphenyl)carbamoyl]thiophene-3-carboxylate]	< 1
CC(=O)c1c(N)sc(C(=O)Nc2ccc(C)cc2C)c1C [Compound 30, 4-acetyl-5-amino-N-(2,4-dimethylphenyl)-3-methylthiophene-2-carboxamide]	< 1
COC(=O)c1c(N)sc(C(=O)Nc2nccs2)c1C [Compound 19, Methyl 2-amino-4-methyl-5-(1,3-thiazol-2-ylcarbamoyl)thiophene-3-carboxylate]	< 1
COC(=O)c1c(N)sc(C(=O)Nc2c(C)cc(C)cc2C)c1C [Compound 17, Methyl 2-amino-4-methyl-5-[(2,4,6-trimethylphenyl)carbamoyl]thiophene carboxylate]	1 to 10
COC(=O)c1c(N)sc(C(=O)Cc2ccc(C)cc2C)c1C [Compound 24, methyl 2-amino-5-[(2,4-dimethylphenyl)acetyl]-4-methylthiophene-3-carboxylate]	1 to 10
CC(=O)c1c(N)sc(C(=O)Nc2ccccc2)c1C [Compound 31, 4-Acetyl-5-amino-3-methyl-N-phenylthiophene-2-carboxamide]	< 1
Cc1ccc(NC(=O)c2sc(N)c(C(N)=O)c2C)c(C)c1 [Compound 12, 5-Amino-N^2-(2,4-dimethylphenyl)-3-methylthiophene-2,4-dicarboxamide]	< 1
CCOC(=O)c1cccc(NC(=O)c2sc(N)c(C(=O)OCC)c2C)c1 [Compound 26, Ethyl 2-amino-5-{[3-(ethoxycarbonyl)phenyl]carbamoyl}-4-methylthiophene-3-carboxylate]	1 to 10

SMILES	EC50 [µM]
COC(=O)c1c(N)sc(C(=O)Nc2cccnc2)c1C [Compound 3, Methyl 2-amino-4-methyl-5-(pyridin-3-ylcarbamoyl)thiophene-3-carboxylate]	< 1
COC(=O)c1c(N)sc(C(=O)OC(C)(C)C)c1C [Compound 4, 2-tert-Butyl 4-methyl 5-amino-3-methylthiophene-2,4-dicarboxylate]	1 to 10
COC(=O)c1c(N)sc(C(=O)Nc2cc(OC)c(OC)c(OC)c2)c1C [Compound 18, Methyl 2-amino-4-methyl-5-[(3,4,5-trimethoxyphenyl)carbamoyl]thiophene-3-carboxylate]	1 to 10
COC(=O)c1c(N)sc(C(=O)Nc2ccc(OC)cc2)c1C [Compound 6, Methyl 2-amino-5-[(4-methoxyphenyl)carbamoyl]-4-methylthiophene-3-carboxylate]	< 1
Cc1ccc(NC(=O)c2sc(N)c(C#N)c2C)c(C)c1 [Compound 2, 5-Amino-4-cyano-N-(2,4-dimethylphenyl)-3-methylthiophene-2-carboxamide]	1 to 10
CCOC(=O)c1c(N)sc(C(=O)Nc2ccc(C)cc2C)c1C [Compound 25, Ethyl 2-amino-5-[(2,4-dimethylphenyl)carbamoyl]-4-methylthiophene-3-carboxylate]	< 1
COC(=O)c1c(N)sc(C(=O)Nc2ccccc2)c1C [Compound 9, Methyl 2-amino-4-methyl-5-(phenylcarbamoyl)thiophene-3-carboxylate]	< 1
Cc1ccc(NC(=O)c2sc(N)c(C(=O)O)c2C)c(C)c1 [Compound 27, 2-amino-5-[(2,4-dimethylphenyl)carbamoyl]-4-methylthiophene-3-carboxylic acid]	< 1
COC(=O)c1c(N)sc(C(=O)Nc2ccccc2C)c1C [Compound 7, Methyl 2-amino-4-methyl-5-[(2-methylphenyl)carbamoyl]thiophene-3-carboxylate]	< 1
COC(=O)c1c(N)sc(C(=O)Nc2ccc(C#N)cc2)c1C [Compound 15, Methyl 2-amino-5-[(4-cyanophenyl)carbamoyl]-4-methylthiophene-3-carboxylate]	< 1
COC(=O)c1c(NC(C)=O)sc(C(=O)Nc2ccc(C)cc2C)c1C [Compound 33]	1 to 10
CCOC(=O)c1c(N)sc(C(=O)Nc2ccc(F)cc2)c1C [Compound 5, Ethyl 2-amino-5-[(4-fluorophenyl)carbamoyl]-4-methylthiophene-3-carboxylate]	< 1
COC(=O)c1c(N)sc(C(=O)Nc2ccc(N(C)C)cc2)c1C [Compound 11, Methyl 2-amino-5-{-[4-(dimethylamino)phenyl]carbamoyl}-4-methylthiophene-3-carboxylate]	< 1
COC(=O)c1cc(C(=O)Nc2ccc(C)cc2C)sc1N [Compound 22, Methyl 2-amino-5-[(2,4-dimethylphenyl)carbamoyl]thiophene-3-carboxylate]	1 to 10
COC(=O)c1c(N)sc(C(=O)Nc2ccc(F)cc2)c1C [Compound 13, Methyl 2-amino-5-[(4-fluorophenyl)carbamoyl]-4-methylthiophene-3-carboxylate]	< 1
COC(=O)c1c(N)sc(C(=O)Nc2cccc(OC)c2)c1C [Compound 20, Methyl 2-amino-5-[(3-methoxyphenyl)carbamoyl]-4-methylthiophene-3-carboxylate]	< 1
Cc1ccc(NC(=O)c2sc(N)c(C(=O)NCC#N)c2C)c(C)c1 [Compound 28, 5-amino-N^4-(cyanomethyl)-N^2-(2,4-dimethylphenyl)-3-methylthiophene-2,4-dicarboxamide]	1 to 10
